# Source: patent US6656956B2, “Benzimidazole derivatives, processes for preparing them and their use as pharmaceutical compositions” (Boehringer Ingelheim Pharma KG, priority 2001, dated 2003)
# Where a name gives a salt, the structure may show the parent alone.
# Molecular target: T1, rh beta tryptase (Homo sapiens, UniProt Q15661)
# T1 construct: purchased Promega
# Assay: tryptase inhibition in vitro test (cleavage of N-p-tosyl-Gly-Pro-Lys-para-nitroaniline, p-nitroaniline measured at 405 nm)
# Assay type: biochemical
# Details: rh beta tryptase 0.91 U/ml, substrate 0.6 mM, Tris HCl buffer with calcium and heparin, pH 7.4, 37° C., 5 minutes incubation; read-out: Tryptase-inhibiting activity
# Method in brief: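 Chromogenic assay in 100 mM Tris HCl pH 7.4 with 5 mM calcium and […], 0.91 U/ml enzyme, 0.6 mM substrate. Compound preincubated 5 min, then p-nitroaniline at 405 nm after 5 min, 37° C. Screening at 10 μM as % inhibition; IC50 determined when inhibition exceeded 70%.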
# T1 sequence (Q15661 31-275): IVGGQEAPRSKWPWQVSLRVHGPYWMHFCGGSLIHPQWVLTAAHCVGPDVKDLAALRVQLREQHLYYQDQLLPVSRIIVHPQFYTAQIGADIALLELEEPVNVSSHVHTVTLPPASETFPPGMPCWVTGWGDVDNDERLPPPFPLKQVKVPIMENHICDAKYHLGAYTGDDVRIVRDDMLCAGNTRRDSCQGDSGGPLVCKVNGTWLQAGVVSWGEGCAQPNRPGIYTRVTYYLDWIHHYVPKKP
row,IC50 [nM],Molecule
1,4 to 30,"CN(CCCO)C1CCN(CC(=O)N(Cc2cccc3ccccc23)c2ccc3c(c2)nc(CCc2ccc(C(=N)N)cc2)n3C)CC1 [Example 2, N-{2-[2-(4-Amidinophenyl)-ethyl]-1-methyl-benzimidazol-5-yl}-N-[naphth-1-ylmethyl]-2-{4-[N-methyl-N-(3-hydroxypropyl)-amino]-piperid-1-yl}-acetamide, Trihydrochloride]"
2,4 to 30,"N-{2-[2-(4-Amidinophenyl)-ethyl]-1-methyl-benzimidazol-5- yl}-N-[ethanecarboxylic acid]-2-[4-(2-pyridylamino)-piperid- 1-yl]-acetamide, dihydrochloride [Example 54]"
3,31 to 1000,"CN(C)CCCN(C)C(=O)Nc1ccc2c(c1)nc(CCc1ccc(C(=N)N)cc1)n2C [Example 81, N-{2-[2-(4-Amidinophenyl)-ethyl]-1-methyl-benzimidazol-5-yl}-N′-methyl-N′-(3-dimethylaminopropyl)-urea, hydrochloride]"
